In article PMC5566973 (Frontiers in Pharmacology, 2017):

What was measured:
human MRP2 = target: T1, human MRP2 (Homo sapiens, UniProt Q92887); test: Vesicular transport assay, Sf9 membrane vesicles expressing human MRP2; type: in vitro ADME; settings: probe at 50 μM
T1 construct: purchased GenoMembrane (Kanagawa, Japan); host or cells: Sf9
Method: (§1) The vesicular transport assay was implemented as described in the GenoMembrane™ vesicular transport kit protocol (GenoMembrane, Kanagawa, Japan) with minor changes. Briefly, vesicle stocks were thawed and diluted with assay buffer (50 mM MOPS-Tris, 70 mM KCl, and 7.5 mM MgCl2). […] MgAMP instead of MgATP was used as a control. Apart from these, 4 mM glutathione was also included in BCRP and MRP2 assays. Transport was terminated with ice cold assay buffer, and then samples were quickly transferred to a filter plate. Wells were immediately washed 5 times with 200 μL assay buffer and dried. The vesicles on the plate were dissolved in 50 μL of 80% methanol and centrifuged at 2,000 rpm for 2 min after collection, and repeating the above procedures. Mixed the two filtrates together and added the pre-cooled methanol. After centrifugation at 12,000 rpm for 5 min at 4°C, a 5 μL aliquot of supernatant was injected into the UPLC-ESI-MS/MS system for analysis. Furthermore, the uptake of NMQ (MDR1), LY (BCRP), and E217βG (MRP2) was used to evaluate the activity of specific vesicles.

[1] = Urinary and fecal excretion in rats; type: in vivo, Sprague-Dawley rats; settings: for Cumulative excretion of the analyte, SUM of urine and feces: within 72 h
Method: Access to water was maintained all the time. Samples including blank urine and feces before dosing, urine and feces from 0 to 24 h, 24 to 48 h, and 48 to 72 h after dosing were collected and stored at −80°C until analysis.
Urine samples were thawed and an aliquot of 100 μL was processed for detection as described in Section Drug Analysis. Feces were homogenized and then weighed, added 6-folds of acetonitrile, extracted by ultrasonic wave for 1 h and then centrifuged. An aliquot of 100 μL was also processed for detection as described in Section Drug Analysis.

human MDR1 = target: T2, human MDR1 (Homo sapiens, UniProt P08183); test: Vesicular transport assay, Sf9 membrane vesicles expressing human MDR1; type: in vitro ADME; settings: probe at 5 μM
T2 construct: purchased GenoMembrane (Kanagawa, Japan); host or cells: Sf9
Method: as §1

Caco-2 cell monolayers = settings: transcellular flux marker; ref Shen et al., 2015; cited from earlier work
human BCRP = target: T3, human BCRP (Homo sapiens, UniProt Q9UNQ0); test: Vesicular transport assay, Sf9 membrane vesicles expressing human BCRP; type: in vitro ADME; settings: 10 μM, MgATP vs MgAMP
T3 construct: purchased GenoMembrane (Kanagawa, Japan); host or cells: Sf9
T3 sequence (Q9UNQ0 1-655): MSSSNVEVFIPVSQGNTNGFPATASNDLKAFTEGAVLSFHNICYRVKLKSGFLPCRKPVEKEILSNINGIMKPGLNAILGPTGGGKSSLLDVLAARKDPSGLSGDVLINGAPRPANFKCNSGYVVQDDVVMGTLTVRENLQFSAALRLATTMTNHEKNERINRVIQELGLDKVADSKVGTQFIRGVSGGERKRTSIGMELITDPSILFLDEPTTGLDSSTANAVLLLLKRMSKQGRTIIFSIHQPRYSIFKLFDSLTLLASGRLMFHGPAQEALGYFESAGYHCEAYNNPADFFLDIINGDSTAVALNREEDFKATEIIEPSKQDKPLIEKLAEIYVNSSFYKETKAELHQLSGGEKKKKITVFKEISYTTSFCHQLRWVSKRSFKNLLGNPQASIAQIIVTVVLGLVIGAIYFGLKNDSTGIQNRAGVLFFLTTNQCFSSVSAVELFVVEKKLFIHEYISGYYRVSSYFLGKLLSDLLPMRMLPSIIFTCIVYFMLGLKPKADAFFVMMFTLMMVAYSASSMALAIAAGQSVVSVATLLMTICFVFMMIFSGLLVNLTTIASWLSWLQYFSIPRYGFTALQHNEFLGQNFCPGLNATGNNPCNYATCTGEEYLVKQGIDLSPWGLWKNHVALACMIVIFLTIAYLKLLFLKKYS
Method: as §1

[2] = after oral harmaline 40.0 mg/kg, 24 h
[3] = after oral harmaline 40.0 mg/kg, 48 h
[4] = after oral harmaline 40.0 mg/kg, 72 h
[5] = after oral harmaline 40.0 mg/kg
[6] = after oral harmine 40.0 mg/kg, 24 h
[7] = after oral harmine 40.0 mg/kg, 48 h
[8] = after oral harmine 40.0 mg/kg, 72 h

T1 sequence (Q92887 whole entry): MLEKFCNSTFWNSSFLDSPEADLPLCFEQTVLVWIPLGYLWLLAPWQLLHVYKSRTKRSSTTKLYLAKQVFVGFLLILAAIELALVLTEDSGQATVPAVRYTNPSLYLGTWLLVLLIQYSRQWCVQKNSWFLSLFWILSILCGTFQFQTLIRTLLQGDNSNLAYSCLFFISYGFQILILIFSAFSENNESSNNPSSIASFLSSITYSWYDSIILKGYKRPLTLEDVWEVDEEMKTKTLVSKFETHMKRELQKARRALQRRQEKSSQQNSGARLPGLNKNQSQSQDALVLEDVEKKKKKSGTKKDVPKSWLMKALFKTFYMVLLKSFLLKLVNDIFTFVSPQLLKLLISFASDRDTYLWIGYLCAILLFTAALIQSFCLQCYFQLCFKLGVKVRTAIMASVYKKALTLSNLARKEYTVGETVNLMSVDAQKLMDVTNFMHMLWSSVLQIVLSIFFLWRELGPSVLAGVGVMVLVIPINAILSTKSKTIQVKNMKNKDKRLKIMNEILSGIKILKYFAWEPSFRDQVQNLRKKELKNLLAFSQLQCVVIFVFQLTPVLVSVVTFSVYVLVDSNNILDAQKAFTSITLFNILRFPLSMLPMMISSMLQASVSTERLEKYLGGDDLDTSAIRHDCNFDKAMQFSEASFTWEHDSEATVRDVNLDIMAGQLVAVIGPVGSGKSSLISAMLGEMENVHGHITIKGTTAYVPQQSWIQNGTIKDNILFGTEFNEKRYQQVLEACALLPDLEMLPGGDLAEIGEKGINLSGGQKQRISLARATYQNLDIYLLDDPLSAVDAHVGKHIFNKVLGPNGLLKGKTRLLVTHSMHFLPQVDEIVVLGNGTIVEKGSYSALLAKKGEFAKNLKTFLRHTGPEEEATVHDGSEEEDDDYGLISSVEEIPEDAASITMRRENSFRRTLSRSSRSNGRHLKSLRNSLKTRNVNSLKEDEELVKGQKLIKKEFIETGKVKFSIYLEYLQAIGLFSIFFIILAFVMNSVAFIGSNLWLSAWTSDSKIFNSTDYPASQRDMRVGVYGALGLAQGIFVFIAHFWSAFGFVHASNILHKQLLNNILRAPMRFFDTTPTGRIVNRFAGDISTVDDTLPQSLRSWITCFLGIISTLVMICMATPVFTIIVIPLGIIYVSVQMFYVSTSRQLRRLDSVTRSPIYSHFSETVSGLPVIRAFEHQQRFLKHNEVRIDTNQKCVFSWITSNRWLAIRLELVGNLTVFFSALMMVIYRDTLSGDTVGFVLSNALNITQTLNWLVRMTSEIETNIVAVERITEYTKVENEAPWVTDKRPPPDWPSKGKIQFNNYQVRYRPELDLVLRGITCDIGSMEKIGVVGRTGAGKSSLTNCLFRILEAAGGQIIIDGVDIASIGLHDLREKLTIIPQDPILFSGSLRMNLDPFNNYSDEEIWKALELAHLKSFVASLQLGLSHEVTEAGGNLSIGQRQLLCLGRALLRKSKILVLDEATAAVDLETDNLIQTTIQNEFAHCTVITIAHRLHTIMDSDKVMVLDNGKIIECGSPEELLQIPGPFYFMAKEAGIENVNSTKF
T2 sequence (P08183 whole entry): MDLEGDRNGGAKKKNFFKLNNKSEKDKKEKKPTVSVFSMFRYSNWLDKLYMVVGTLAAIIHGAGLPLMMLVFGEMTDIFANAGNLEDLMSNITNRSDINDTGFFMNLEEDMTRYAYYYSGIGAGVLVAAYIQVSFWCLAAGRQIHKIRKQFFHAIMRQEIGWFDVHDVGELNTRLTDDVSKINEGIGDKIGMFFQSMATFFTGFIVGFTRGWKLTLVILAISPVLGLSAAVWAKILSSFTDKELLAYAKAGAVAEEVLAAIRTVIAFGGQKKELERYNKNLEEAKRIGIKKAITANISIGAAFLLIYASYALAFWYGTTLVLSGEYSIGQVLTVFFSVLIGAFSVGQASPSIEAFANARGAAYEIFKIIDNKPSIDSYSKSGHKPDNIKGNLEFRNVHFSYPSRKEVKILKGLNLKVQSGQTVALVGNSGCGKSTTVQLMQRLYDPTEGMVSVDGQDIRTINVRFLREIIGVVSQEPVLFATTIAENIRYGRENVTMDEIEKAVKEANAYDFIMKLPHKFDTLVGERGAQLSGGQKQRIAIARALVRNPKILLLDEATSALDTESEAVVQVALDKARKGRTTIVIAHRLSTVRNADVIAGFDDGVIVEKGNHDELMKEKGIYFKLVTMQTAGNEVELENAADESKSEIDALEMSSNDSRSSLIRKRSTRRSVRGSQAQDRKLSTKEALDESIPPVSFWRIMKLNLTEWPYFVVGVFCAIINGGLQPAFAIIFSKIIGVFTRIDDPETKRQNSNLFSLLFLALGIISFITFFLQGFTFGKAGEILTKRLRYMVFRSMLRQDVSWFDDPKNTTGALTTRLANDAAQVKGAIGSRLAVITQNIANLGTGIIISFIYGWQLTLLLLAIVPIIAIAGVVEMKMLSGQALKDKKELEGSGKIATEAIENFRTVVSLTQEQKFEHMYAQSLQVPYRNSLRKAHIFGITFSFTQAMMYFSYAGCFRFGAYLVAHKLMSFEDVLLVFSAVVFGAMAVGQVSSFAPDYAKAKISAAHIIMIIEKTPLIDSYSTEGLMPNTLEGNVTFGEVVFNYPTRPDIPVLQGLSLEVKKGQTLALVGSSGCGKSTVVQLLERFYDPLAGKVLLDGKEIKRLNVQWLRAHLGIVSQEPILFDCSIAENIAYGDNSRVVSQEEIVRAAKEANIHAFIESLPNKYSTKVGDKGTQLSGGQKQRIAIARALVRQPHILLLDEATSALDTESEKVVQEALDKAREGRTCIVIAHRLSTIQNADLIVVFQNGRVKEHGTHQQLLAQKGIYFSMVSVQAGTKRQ

Row | Compound | Cumulative excretion in feces (%) of the analyte [1, 2] | Cumulative excretion in urine (%) of the analyte [1, 2] | Cumulative excretion in feces (%) of the analyte [1, 3] | Cumulative excretion in urine (%) of the analyte [1, 3] | Cumulative excretion in feces (%) of the analyte [1, 4] | Cumulative excretion in urine (%) of the analyte [1, 4] | Cumulative excretion of the analyte, SUM of urine and feces [1, 5] | other results
1 | C[C@]12CC[C@@H]3c4ccc(O)cc4CC[C@H]3[C@@H]1CC[C@@H]2O[C@@H]1O[C@H](C(=O)O)[C@@H](O)[C@H](O)[C@H]1O [E217βG, estradiol-17 β-glucuronide, reference compound] |  |  |  |  |  |  |  | uptake ratio (UR) (human MRP2): 7.71
2 | CC1=NCCc2c1[nH]c1cc(O)ccc21 [Harmalol] | 1.73 ± 1.01% | 1.16 ± 0.81% | 1.87 ± 1.04% | 2.03 ± 2.12% | 1.89 ± 1.04% | 2.30 ± 2.36% | 4.18 ± 2.67% | 
3 | Cc1[nH]ccc2c1[nH]c1cc(=O)ccc12 [Harmol] | 1.24 ± 0.51% | 0.23 ± 0.42% | 1.64 ± 0.73% | 0.50 ± 0.55% | 1.70 ± 0.75% | 0.65 ± 0.56% | 2.35 ± 0.91% | Cumulative excretion in feces (%) of the analyte [1, 6]: 5.66 ± 2.96%; Cumulative excretion in urine (%) of the analyte [1, 6]: 2.51 ± 2.82%; Cumulative excretion in feces (%) of the analyte [1, 7]: 7.69 ± 3.33%; Cumulative excretion in urine (%) of the analyte [1, 7]: 4.63 ± 4.53%; Cumulative excretion in feces (%) of the analyte [1, 8]: 8.38 ± 3.47%; Cumulative excretion in urine (%) of the analyte [1, 8]: 5.42 ± 5.19%; Cumulative excretion of the analyte, SUM of urine and feces ([1]; after oral harmine 40.0 mg/kg): 13.80 ± 5.71%
4 | C=C[C@H]1C[N+]2(C)CC[C@H]1C[C@@H]2[C@@H](O)c1ccnc2ccc(OC)cc12 [NMQ, N-methylquinidine, reference compound] |  |  |  |  |  |  |  | uptake ratio (UR) (human MDR1): 2.05
5 | CC(C)NCC(O)COc1cccc2ccccc12 (stereo not shown) [propranolol, reference compound] |  |  |  |  |  |  |  | PappAB (Caco-2 cell monolayers): 41.90 ± 3.30 × 10^−6 cm/s
6 | lucifer yellow [LY, reference compound] |  |  |  |  |  |  |  | uptake ratio (UR) (human BCRP): 19.66
